Patent US9809574B2, “Isoindoline or isoquinoline compounds, a process for their preparation and pharmaceutical compositions containing them” (LES LABORATOIRES SERVIER, priority 2013, dated 2017)
Structures can show the parent of a compound that is named as a salt.

Assays:
[1] = system: RS4; 11 leukaemia cell line; experiment: In vitro cytotoxicity, Microculture Tetrazolium Assay (MTT); type: cell-based; conditions: Homo sapiens, 11 cells exposed for 48 hours
Procedure: The cytotoxicity studies were carried out on the RS4; 11 leukaemia cell line and on H146 small Cell Lung Carcinoma cell line. The cells are distributed onto microplates and exposed to the test compounds for 48 hours. The cell viability is then quantified by a colorimetric assay, the Microculture Tetrazolium Assay (Cancer Res., 1987, 47, 939-942).

Bcl-2 protein = Bcl-2 protein (histag-Bcl-2, UniProtKB P10415) (Homo sapiens (Human), UniProt P10415); experiment: Inhibition of Bcl-2 by the fluorescence polarisation technique; type: binding; conditions: fluorescence polarisation test; incubation for 2 hours; read-out: IC50 (nM) Bcl-2 FP
Bcl-2 protein, sequence (P10415 whole entry): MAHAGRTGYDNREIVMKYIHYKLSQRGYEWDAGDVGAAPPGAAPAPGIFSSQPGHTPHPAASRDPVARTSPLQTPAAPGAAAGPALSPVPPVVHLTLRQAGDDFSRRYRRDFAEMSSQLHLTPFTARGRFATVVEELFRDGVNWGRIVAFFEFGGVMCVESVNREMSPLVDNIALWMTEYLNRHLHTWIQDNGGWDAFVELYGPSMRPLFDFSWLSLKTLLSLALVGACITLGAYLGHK
Source text: For partial inhibitors, the percentage fluorescence polarisation inhibition for a given concentration of the test compound is indicated.

Compound	IC50 (Bcl-2 protein)	IC50 [1]
C[C@@H]1Cc2ccccc2CN1C(=O)c1cc2c(cc1-c1cc(C(=O)N(C)c3ccc(O)cc3)c3n1CCCC3)CCN(C(=O)Oc1ccc(CCC(=O)N(C)C)cc1)C2 [Example 155, 4-[2-(Dimethylcarbamoyl)ethyl]phenyl 6-{1-[(4-hydroxyphenyl)(methyl)carbamoyl]-5,6,7,8-tetrahydroindolizin-3-yl}-7-[(3R)-3-methyl-1,2,3,4-tetrahydroisoquinoline-2-carbonyl]-1,2,3,4-tetrahydroisoquinoline-2-carboxylate]	3.2 nM	2.9 nM
Cc1c(C(=O)N(C)c2ccccc2)cc(-c2cc3c(cc2C(=O)N2Cc4ccccc4C[C@H]2C)CN(C(=O)Oc2cccc(OCCN(C)C)c2)CC3)n1C [Example 448, 3-[2-(Dimethylamino)ethoxy]phenyl 6-{1,5-dimethyl-4-[methyl(phenyl)carbamoyl]-1H-pyrrol-2-yl}-7-[(3R)-3-methyl-1,2,3,4-tetrahydroisoquinoline-2-carbonyl]-1,2,3,4-tetrahydroisoquinoline-2-carboxylate]	4 nM	8.2 nM
C[C@@H]1Cc2ccccc2CN1C(=O)c1cc2c(cc1-c1cc(C(=O)N(C)c3ccc(O)cc3)c3n1CCCC3)CCNC2 [Example 27, N-(4-Hydroxyphenyl)-N-methyl-3-{7-[(3R)-3-methyl-1,2,3,4-tetrahydroisoquinoline-2-carbonyl]-1,2,3,4-tetrahydroisoquinolin-6-yl}-5,6,7,8-tetrahydroindolizine-1-carboxamide; trifluoroacetic acid salt]	83 nM	
Cc1c(C(=O)N(C)c2ccc(O)cc2)cc(-c2cc3c(cc2C(=O)N2Cc4ccccc4C[C@H]2C)CN(C(=O)Oc2ccc(OCCN(C)C)cc2)CC3)n1C [Example 476, 4-[2-(Dimethylamino)ethoxy]phenyl 6-{4-[(4-hydroxyphenyl)(methyl)carbamoyl]-1,5-dimethyl-1H-pyrrol-2-yl}-7-[(3R)-3-methyl-1,2,3,4-tetrahydroisoquinoline-2-carbonyl]-1,2,3,4-tetrahydroisoquinoline-2-carboxylate]	1.8 nM	
C[C@@H]1Cc2ccccc2CN1C(=O)c1cc2c(cc1-c1cc(C(=O)N(C)c3ccc(O)cc3)c3n1CCCC3)CNC2 [Example 10, N-(4-Hydroxyphenyl)-N-methyl-3-{6-[(3R)-3-methyl-1,2,3,4-tetrahydroisoquinoline-2-carbonyl]-2,3-dihydro-1H-isoindol-5-yl}-5,6,7,8-tetrahydroindolizine-1-carboxamide]	127 nM	

Further lines, with some results ahead:

IC50 (Bcl-2 protein)	Compound	IC50 [1]
15 nM	Cc1c(C(=O)N(C)c2ccc(O)cc2)cc(-c2cc3c(cc2C(=O)N2Cc4ccccc4C[C@H]2C)CN(C(=O)CN2CCCCC2)CC3)n1C [Example 799, N-(4-Hydroxyphenyl)-N,1,2-trimethyl-5-{7-[(3R)-3-methyl-1,2,3,4-tetrahydroisoquinoline-2-carbonyl]-2-[2-(piperidin-1-yl)acetyl]-1,2,3,4-tetrahydroisoquinolin-6-yl}-1H-pyrrole-3-carboxamide]	> 150 nM
9.1 nM	Cc1c(C(=O)N(C)c2ccc(O)cc2)cc(-c2cc3c(cc2C(=O)N2Cc4ccccc4C[C@H]2CN2CCOCC2)CN(C(=O)CC24CC5CC(CC(C5)C2)C4)CC3)n1C [Example 798, 5-{2-[2-(Adamantan-1-yl)acetyl]-7-[(3S)-3-(morpholin-4-ylmethyl)-1,2,3,4-tetrahydroisoquinoline-2-carbonyl]-1,2,3,4-tetrahydroisoquinolin-6-yl}-N-(4-hydroxyphenyl)-N,1,2-trimethyl-1H-pyrrole-3-carboxamide]	76 nM
78 nM	Cc1c(C(=O)N(C)c2ccc(O)cc2)cc(-c2cc3c(cc2C(=O)N2Cc4ccccc4C[C@H]2C)CN(C(=O)CN2CCCCC2)C3)n1C [Example 176, 5-{2-[2-(1-Piperidyl)acetyl]-6-[(3R)-3-methyl-1,2,3,4-tetrahydroisoquinoline-2-carbonyl]-2,3-dihydro-1H-isoindol-5-yl}-N-(4-hydroxyphenyl)-N,1,2-trimethyl-1H-pyrrole-3-carboxamide]	
